How the values were obtained:
[1] = Antiviral activity against Influenza A virus A//HK/7/87 (H3N2) expressing wild-type M2 proton channel infected in MDCK cells assessed as reduction in plaque formation preincubated with virus for 1 hr followed by addition to cells measured after 72 hrs by crystal violet staining based assay; assay type: functional, cell-based, Influenza A virus (A/Hong Kong/7/1987(H3N2))
[2] = Antiviral activity against Influenza A virus A//HK/7/87 (H3N2) expressing wild-type M2 proton channel infected in MDCK cells assessed as reduction in viral yield after 24 hrs by RT-qPCR method; assay type: functional, Influenza A virus (A/Hong Kong/7/1987(H3N2))
[3] = (§1) Cytotoxicity against MDCK cells assessed as reduction in cell viability after 72 hrs by MTS assay; assay type: cell-based, Canis lupus familiaris; details: dog, MDCK cells
MDCK = test: as §1; assay type: cell-based, Canis lupus familiaris; details: dog, mdck, 72 h
[4] = target: Matrix protein 2 (Influenza A virus (A/Udorn/307/1972(H3N2))) (UniProt P0DOF8); assay type: cell-based; details: Influenza A virus (A/udorn/1972(H3N2)); 100 uM
[5] = target: Matrix protein 2 (Influenza A virus (A/Udorn/307/1972(H3N2))) (UniProt P0DOF8); assay type: cell-based; details: Influenza A virus (A/udorn/1972(H3N2)); 100 uM; remark: listed apart in the source
[6] = Antiviral activity against Influenza A virus (A2 Japan/305/57) H2N2 infected in MDCK cells assessed as reduction of virus-induced cytopathic effect after 4 to 5 days by MTS assay; assay type: functional, cell-based, Influenza A virus (A/Japan/305/1957(H2N2))

Sequence of Matrix protein 2 (Influenza A virus (A/Udorn/307/1972(H3N2))) (P0DOF8 whole entry): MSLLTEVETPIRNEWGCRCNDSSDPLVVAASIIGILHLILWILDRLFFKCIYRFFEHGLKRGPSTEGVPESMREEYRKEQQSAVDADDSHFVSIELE

SMILES | EC50 [1] | EC99 [2] | CC50 at 72 h [3] | CC50 (MDCK) | inhibition [4] | inhibition [5] | EC50 [6]
NC12CC3CC(CC(C3)C1)C2 [AMANTADINE] | 0.14 µM | 0.51 µM |  |  |  |  | 
N=C(N)N1CCC(C=C2C3CC4CC(C3)CC2C4)CC1 | > 5 µM | > 2 µM | 19 µM |  |  |  | 
CN1CCC(CC2C3CC4CC(C3)CC2C4)CC1 (stereo not drawn) | > 10 µM | > 2 µM |  | 6.2 µM |  |  | 
C(=C1C2CC3CC(C2)CC1C3)C1CCNCC1 | > 5 µM | > 10 µM | 25 µM |  |  |  | 
C1CC(CC2C3CC4CC(C3)CC2C4)CCN1 (stereo not drawn) | > 10 µM | > 2 µM |  | 15 µM |  |  | 
OC1(C2CCNCC2)C2CC3CC(C2)CC1C3 (stereo not drawn) | > 100 µM | 76 µM |  | > 100 µM | 25% | 30% | 
CC(N)C12CC3CC(CC(C3)C1)C2 (stereo not drawn) [RIMANTADINE] | 0.016 µM | 1.1 µM |  | > 500 µM |  |  | 
N=C(N)N1CCC(CC2C3CC4CC(C3)CC2C4)CC1 (stereo not drawn) | > 10 µM | > 2 µM |  | 3.8 µM |  |  | 
C1CCC(C23CC4CC(CC(C4)C2)C3)NC1 (stereo not drawn) | 1 µM | 3.5 µM |  | > 100 µM |  |  | 3.3 µM
C1CC(C2C3CC4CC(C3)CC2C4)CCN1 (stereo not drawn) |  | ≥ 50 µM |  | > 100 µM |  |  | 
N=C(N)N1CCC(C23CC4CC(CC(C4)C2)C3)CC1 | > 50 µM | > 2 µM |  | 10 µM |  |  | 
OC1(CC2CCNCC2)C2CC3CC(C2)CC1C3 (stereo not drawn) | 10 µM | > 50 µM |  | > 50 µM |  |  | 
CCN1CCC(C2C3CC4CC(C3)CC2C4)CC1 (stereo not drawn) | > 10 µM | > 10 µM |  | 25 µM |  |  | 
C1CC(C23CC4CC(CC(C4)C2)C3)CCN1 | 0.14 µM | ≥ 1.7 µM |  | 18 µM |  |  | 

From ChEMBL document CHEMBL4049445
